Legend:
THP-1 [1] = assay: Cytotoxicity against human THP-1 cells assessed as cell growth inhibition; assay type: functional, cell-based
Cyclic GMP-AMP synthase [2] = target: T1, Cyclic GMP-AMP synthase (Homo sapiens, UniProt Q8N884); assay: Inhibition of N-terminal 6XHis-SUMO2 fused full length human cGAS (1 to 522 residues) expressed in […] incubated for 20 mins in presence of ATP by luminescence based analysis
Cyclic GMP-AMP synthase [3] = target: T1, Cyclic GMP-AMP synthase; assay: Inhibition of full-length human cGAS by fluorescence polarization
[4] = Cytotoxicity against human THP1-Dual KO-IFNAR2 cells assessed as cell growth inhibition; assay type: functional, cell-based
Toll-like receptor 9 [5] = target: T2, Toll-like receptor 9 (Homo sapiens, UniProt Q9NR96); assay: Antagonist activity at TLR9 (unknown origin)
T2 sequence (Q9NR96 whole entry): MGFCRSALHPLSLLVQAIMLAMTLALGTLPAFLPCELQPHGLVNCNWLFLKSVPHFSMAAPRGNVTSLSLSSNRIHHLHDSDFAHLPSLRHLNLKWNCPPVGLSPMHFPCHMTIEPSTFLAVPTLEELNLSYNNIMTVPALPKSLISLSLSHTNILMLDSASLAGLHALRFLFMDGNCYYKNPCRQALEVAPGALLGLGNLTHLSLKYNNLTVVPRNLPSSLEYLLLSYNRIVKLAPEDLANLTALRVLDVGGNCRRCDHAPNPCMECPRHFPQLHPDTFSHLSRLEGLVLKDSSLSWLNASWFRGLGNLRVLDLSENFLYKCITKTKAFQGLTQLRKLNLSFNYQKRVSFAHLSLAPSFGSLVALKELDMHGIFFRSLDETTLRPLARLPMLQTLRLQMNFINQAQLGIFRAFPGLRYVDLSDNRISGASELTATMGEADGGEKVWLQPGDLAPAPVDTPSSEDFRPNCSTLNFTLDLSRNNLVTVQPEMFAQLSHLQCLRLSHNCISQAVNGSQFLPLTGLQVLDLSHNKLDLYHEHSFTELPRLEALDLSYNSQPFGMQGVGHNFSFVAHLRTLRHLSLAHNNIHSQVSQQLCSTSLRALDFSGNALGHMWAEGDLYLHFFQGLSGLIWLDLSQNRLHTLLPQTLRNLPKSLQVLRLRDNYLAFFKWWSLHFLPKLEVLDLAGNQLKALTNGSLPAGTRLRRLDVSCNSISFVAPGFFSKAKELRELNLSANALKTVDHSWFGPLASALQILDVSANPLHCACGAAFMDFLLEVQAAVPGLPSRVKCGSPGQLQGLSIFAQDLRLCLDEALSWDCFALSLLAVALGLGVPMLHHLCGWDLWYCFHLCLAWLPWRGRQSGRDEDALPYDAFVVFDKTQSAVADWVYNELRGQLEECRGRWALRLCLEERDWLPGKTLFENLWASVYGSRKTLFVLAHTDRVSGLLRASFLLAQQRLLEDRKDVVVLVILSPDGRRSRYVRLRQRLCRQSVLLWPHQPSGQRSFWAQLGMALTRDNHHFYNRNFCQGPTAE

Toll-like receptor 8 [6] = target: T3, Toll-like receptor 8 (Homo sapiens, UniProt Q9NR97); assay: Antagonist activity at R848 stimulated TRL8 overexpressed in HEK293 cells measured after 20 to 24 hrs by SEAP reporter assay; assay type: cell-based
T3 sequence (Q9NR97 whole entry): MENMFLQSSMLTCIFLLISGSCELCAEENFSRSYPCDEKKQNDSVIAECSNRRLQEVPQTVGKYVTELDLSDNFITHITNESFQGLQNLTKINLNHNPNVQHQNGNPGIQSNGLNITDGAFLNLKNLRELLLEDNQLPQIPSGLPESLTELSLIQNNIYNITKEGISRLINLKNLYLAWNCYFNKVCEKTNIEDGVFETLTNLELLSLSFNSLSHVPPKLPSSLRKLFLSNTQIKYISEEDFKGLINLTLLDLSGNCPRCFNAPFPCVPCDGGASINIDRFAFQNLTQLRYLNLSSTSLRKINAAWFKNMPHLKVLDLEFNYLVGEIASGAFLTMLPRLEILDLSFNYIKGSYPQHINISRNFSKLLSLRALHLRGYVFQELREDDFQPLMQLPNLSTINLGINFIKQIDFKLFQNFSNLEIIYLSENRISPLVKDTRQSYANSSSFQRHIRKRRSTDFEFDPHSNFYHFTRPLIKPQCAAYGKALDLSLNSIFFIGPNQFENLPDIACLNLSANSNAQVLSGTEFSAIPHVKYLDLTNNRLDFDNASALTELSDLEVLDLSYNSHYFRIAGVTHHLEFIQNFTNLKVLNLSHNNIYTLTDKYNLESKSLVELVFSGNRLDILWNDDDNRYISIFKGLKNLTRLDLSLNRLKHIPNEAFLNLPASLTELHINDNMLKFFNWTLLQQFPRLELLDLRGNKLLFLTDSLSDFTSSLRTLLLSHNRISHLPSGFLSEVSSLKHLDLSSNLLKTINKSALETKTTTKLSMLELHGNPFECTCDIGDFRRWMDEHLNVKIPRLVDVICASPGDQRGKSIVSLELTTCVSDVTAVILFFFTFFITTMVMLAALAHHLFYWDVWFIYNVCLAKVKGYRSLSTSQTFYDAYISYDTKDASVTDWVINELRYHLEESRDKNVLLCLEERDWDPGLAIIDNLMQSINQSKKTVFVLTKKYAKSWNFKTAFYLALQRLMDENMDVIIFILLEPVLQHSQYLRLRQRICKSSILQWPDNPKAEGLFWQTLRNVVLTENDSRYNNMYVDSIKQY

RAW264.7 = assay: Cytotoxicity against mouse RAW264.7 cells assessed as cell growth inhibition measured after 24 hrs by Celltiter-Glo assay; assay type: functional, cell-based; details: RAW264.7, 24 h
Toll-like receptor 7 [7] = target: T4, Toll-like receptor 7 (Homo sapiens, UniProt Q9NYK1); assay: Antagonist activity at TLR7 in human PBMC incubated for 3 hrs by TR-FRET assay; assay type: cell-based
T4 sequence (Q9NYK1 whole entry): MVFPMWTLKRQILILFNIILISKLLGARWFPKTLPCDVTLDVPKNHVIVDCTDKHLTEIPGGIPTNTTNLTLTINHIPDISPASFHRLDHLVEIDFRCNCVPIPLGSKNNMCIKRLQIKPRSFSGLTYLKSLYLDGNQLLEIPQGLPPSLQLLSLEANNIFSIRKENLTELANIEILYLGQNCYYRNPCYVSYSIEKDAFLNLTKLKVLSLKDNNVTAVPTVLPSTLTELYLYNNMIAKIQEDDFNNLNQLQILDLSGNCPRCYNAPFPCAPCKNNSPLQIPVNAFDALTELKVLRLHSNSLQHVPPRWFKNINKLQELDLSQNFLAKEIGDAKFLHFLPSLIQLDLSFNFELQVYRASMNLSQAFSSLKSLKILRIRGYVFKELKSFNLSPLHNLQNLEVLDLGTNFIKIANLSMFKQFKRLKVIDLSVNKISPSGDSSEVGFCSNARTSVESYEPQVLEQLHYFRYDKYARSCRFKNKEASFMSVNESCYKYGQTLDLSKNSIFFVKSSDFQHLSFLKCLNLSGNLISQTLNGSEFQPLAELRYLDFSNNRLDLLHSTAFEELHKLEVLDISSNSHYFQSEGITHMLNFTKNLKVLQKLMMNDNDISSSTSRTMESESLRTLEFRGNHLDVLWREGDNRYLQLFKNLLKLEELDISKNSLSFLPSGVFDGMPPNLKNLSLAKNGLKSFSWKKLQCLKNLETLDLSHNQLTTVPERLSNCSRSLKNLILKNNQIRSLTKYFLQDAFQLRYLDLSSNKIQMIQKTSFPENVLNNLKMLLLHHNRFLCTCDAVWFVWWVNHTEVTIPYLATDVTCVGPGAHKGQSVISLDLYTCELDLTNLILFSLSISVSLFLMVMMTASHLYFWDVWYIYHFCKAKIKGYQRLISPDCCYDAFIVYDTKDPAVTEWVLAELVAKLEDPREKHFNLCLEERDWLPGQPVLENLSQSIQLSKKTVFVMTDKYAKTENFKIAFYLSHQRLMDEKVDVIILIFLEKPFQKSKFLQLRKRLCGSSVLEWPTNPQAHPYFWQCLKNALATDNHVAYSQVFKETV

THP-1 [8] = assay: Cytotoxicity against human THP-1 cells assessed as cell growth inhibition measured after 24 hrs by Celltiter-Glo assay; assay type: functional, cell-based; details: THP-1, 24 h
[9] = target: Stimulator of interferon genes protein (Homo sapiens, UniProt Q86WV6); assay: Binding affinity to wild-type human STING CTD (149 to 379 residues) expressed in Escherichia coli BL21 (DE3) assessed as dissociation constant by isothermal titration calorimetry assay
Stimulator of interferon genes protein, sequence (Q86WV6 whole entry, the tested form may be a part): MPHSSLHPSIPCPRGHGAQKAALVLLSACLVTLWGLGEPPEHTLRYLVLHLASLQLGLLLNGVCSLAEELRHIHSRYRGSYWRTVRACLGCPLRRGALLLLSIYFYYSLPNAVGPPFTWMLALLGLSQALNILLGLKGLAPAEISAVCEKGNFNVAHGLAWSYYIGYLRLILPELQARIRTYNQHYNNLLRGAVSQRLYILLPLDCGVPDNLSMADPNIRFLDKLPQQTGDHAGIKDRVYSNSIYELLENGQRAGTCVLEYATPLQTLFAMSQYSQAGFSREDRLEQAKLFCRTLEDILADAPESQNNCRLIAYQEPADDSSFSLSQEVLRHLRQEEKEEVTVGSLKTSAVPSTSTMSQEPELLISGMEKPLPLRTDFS

IMR-90 = assay: Cytotoxicity against human IMR-90 cells assessed as inhibition of IFN-beta production by MTS assay; assay type: functional, cell-based
[10] = target: NACHT, LRR and PYD domains-containing protein 3 (Mus musculus, UniProt Q8R4B8); assay: Inhibition of NLRP3 inflammasome activation in LPS-primed C57BL/6 mouse bone marrow derived macrophages incubated for 30 mins in presence of ATP by immunoblotting analysis; assay type: cell-based, Macrophage
NACHT, LRR and PYD domains-containing protein 3, sequence (Q8R4B8 whole entry, the tested form may be a part): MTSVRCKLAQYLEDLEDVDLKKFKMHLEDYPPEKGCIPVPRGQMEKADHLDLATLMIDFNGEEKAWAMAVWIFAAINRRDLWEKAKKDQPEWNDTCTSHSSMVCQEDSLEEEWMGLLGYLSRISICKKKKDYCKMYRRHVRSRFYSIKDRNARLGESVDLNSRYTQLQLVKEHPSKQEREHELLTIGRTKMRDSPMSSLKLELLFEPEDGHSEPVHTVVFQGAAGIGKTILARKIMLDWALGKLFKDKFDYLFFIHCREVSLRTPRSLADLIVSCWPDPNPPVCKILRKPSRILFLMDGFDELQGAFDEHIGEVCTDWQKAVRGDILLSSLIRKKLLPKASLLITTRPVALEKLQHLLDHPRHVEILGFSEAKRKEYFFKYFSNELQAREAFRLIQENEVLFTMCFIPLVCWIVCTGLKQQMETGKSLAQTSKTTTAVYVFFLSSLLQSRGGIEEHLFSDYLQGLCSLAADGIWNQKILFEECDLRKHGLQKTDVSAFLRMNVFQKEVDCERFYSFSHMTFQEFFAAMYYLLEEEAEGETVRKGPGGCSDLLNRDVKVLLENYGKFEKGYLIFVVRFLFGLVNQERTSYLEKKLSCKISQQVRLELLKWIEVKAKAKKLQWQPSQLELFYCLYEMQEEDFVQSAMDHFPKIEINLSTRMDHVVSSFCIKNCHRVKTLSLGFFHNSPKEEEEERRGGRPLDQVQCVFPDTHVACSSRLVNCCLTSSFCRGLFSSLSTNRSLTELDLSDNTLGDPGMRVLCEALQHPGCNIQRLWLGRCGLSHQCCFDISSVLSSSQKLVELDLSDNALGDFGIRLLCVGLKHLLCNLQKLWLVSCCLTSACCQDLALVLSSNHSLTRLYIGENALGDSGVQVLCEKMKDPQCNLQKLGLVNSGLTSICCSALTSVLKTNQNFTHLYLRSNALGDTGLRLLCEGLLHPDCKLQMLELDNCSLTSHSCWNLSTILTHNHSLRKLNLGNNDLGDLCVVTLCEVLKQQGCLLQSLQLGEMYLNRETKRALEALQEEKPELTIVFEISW

THP-1 [11] = assay: Cytotoxicity against human THP-1 cells assessed as cell growth inhibition measured after 24 hrs by Annexin-V staining based flow cytometry analysis; assay type: functional; details: THP-1, 24 h
Cyclic GMP-AMP synthase [12] = target: T1, Cyclic GMP-AMP synthase; assay: Inhibition of cGAS expressed in human THP-1 cells assessed as reduction of IFN-beta expression by ELISA assay; assay type: cell-based
Cyclic GMP-AMP synthase [13] = target: T1, Cyclic GMP-AMP synthase; assay: Antagonist activity at N-terminal 6XHis tagged human cGAS (155 to 522 residues) expressed in Escherichia coli BL21 DE3 Rosetta 2 in presence of ATP by luciferase based assay
[14] = Inhibition of RANTES secretion in mouse Trex1-knockout bone marrow-derived macrophages incubated for 24 hrs by celltiter-glo assay; assay type: functional, cell-based; details: BMDM
[15] = Inhibition of MCP-1 secretion in mouse Trex1-knockout bone marrow-derived macrophages incubated for 24 hrs by celltiter-glo assay; assay type: functional, cell-based; details: BMDM
Toll-like receptor 7 [16] = target: T4, Toll-like receptor 7; assay: Antagonist activity at R848 stimulated TRL7 in HEK-Blue hTLR7 cells assessed as inhibition of NF kappa B/Ap-1 activation measured after 20 hrs by SEAP reporter assay; assay type: cell-based
Toll-like receptor 8 [17] = target: T3, Toll-like receptor 8; assay: Antagonist activity at R848 stimulated TRL8 in HEK-Blue hTLR8 cells assessed as inhibition of NF kappa B/Ap-1 activation measured after 20 hrs by SEAP reporter assay; assay type: cell-based
Toll-like receptor 9 [18] = target: T2, Toll-like receptor 9; assay: Antagonist activity at R848 stimulated TRL9 in HEK-Blue hTLR9 cells assessed as inhibition of NF kappa B/Ap-1 activation measured after 20 hrs by SEAP reporter assay; assay type: cell-based

T1 sequence (Q8N884 whole entry, the tested form may be a part): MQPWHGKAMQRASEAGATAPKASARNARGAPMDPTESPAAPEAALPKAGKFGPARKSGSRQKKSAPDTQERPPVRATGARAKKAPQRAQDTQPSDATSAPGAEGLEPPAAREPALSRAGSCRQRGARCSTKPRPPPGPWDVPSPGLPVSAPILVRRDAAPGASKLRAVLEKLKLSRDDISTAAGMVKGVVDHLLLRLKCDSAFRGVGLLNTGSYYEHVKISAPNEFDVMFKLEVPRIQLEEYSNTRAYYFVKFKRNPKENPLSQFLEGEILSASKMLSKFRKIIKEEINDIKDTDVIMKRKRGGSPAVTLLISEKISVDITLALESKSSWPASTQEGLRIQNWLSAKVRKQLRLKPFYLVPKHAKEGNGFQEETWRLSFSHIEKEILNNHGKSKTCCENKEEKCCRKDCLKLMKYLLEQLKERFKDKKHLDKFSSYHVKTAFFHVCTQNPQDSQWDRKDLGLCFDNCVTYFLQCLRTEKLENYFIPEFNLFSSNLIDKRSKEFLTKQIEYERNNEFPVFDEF

COC(=O)[C@H](Cc1ccccc1)Nc1nc(NCc2nc3cc(F)ccc3[nH]2)nc(Nc2cccc(CN3CCN(C(=O)c4nccnc4O)CC3)c2)n1
IC50 (THP-1 [1]): 20 µM

O=C(O)c1cccc(NC(=O)c2n[nH]c(-n3cnnc3)n2)c1
IC50 (Cyclic GMP-AMP synthase [2]): 13.1 µM

Cc1[nH]n2c(-c3ccccc3)c(C#N)nc2c(=O)c1-c1cccc(Cl)c1
IC50 (THP-1 [1]): < 10 µM | IC50 (Cyclic GMP-AMP synthase [3]): < 1 µM

CCCCc1ccc(S(N)(=O)=Nc2c[nH]c3ccccc23)cc1 (stereo not drawn)
IC50 [4]: 0.04 µM

O=C(O)c1n[nH]c(-n2cnnc2)n1
IC50 (Cyclic GMP-AMP synthase [2]): 29.9 µM

O=C(Nc1c[nH]c2cc(F)c(F)cc12)c1ncn(Cc2ccc(C(F)(F)F)cc2)n1
IC50 [4]: 0.04 µM

CNCc1ccc(C(=O)Nc2nc(N3CCN(C4CCCC4)CC3)c3ncn(CCCN4CCCC4)c3n2)cc1
IC50 (Toll-like receptor 9 [5]): 0.005 µM

Cc1cccc(-c2ccnc3c(C(N)=O)cnn23)c1
IC50 (Toll-like receptor 8 [6]): 0.067 µM

CCCCc1ccc(Nc2c(Nc3c[nH]c4ccccc34)c(=O)c2=O)cc1
IC50 [4]: 0.2 µM

Nc1ccc(-c2cc(Cl)c(Cl)c3[nH]c4c(c23)CN(C(=O)CO)CC4)cn1
IC50 (RAW264.7): < 1 µM

CCN(C)CC(=O)NC12CCC(Cn3nc(C)c4c3CCN(c3cc(C)nc5c3cnn5C)C4)(CC1)CC2
IC50 (Toll-like receptor 7 [7]): < 0.0005 µM

O=C(Nc1cc(-c2ccccc2)ccn1)c1[nH]ncc1[N+](=O)[O-]
IC50 (THP-1 [8]): 2.63 µM

CC[C@@H]1CC(=O)[C@@H]2[C@H](Cl)[C@H](Cl)CN2C(=O)[C@H](CC)NC(=O)C[C@H](c2ccccc2)NC(=O)[C@H](CO)NC1=O
Kd [9]: 0.053 µM | IC50 (IMR-90): 10.8 µM

COc1ccc(/C=C/C(=O)Nc2ccccc2C(=O)O)cc1OC
IC50 [10]: 25 µM

COc1ccc2nc3cc(N)ccc3c(N(C)CCCN(C)c3ccncc3)c2c1
IC50 (THP-1 [11]): 14 µM

Cc1nc(N2C[C@@H](CC(=O)Nc3ccncc3)C[C@H]2C(=O)O)c2oc3ccccc3c2n1
IC50 (Cyclic GMP-AMP synthase [12]): 13 µM

COc1cccc2oc(-c3c(C#N)[nH]c4c(-c5ccccc5)c(C(F)(F)F)nn4c3=O)nc12
IC50 (Cyclic GMP-AMP synthase [13]): < 20 µM | IC50 [14]: 1.25 µM | IC50 [15]: 6.97 µM

Cc1cc(N2CCOC3(CN(C[C@H]4CN(c5ccc(C#N)c6ncccc56)C[C@@H](C)O4)C3)C2)cc(C)n1
IC50 (Toll-like receptor 7 [16]): < 0.003 µM | IC50 (Toll-like receptor 8 [17]): < 0.003 µM | IC50 (Toll-like receptor 9 [18]): < 0.032 µM

CCCCc1ccc(NC(=O)Nc2c[nH]c3ncc(F)cc23)cc1
IC50 [4]: 0.04 µM

COC12CNCC1CN(c1ccc3c(c1)CN1[C@H](C)CN(c4ccc(C#N)c5ncccc45)C[C@H]31)C2 (stereo partly drawn)
IC50 (Toll-like receptor 7 [16]): < 0.003 µM | IC50 (Toll-like receptor 8 [17]): < 0.003 µM | IC50 (Toll-like receptor 9 [18]): < 0.032 µM

From ChEMBL document CHEMBL5096179, “Small molecule approaches to treat autoimmune and inflammatory diseases (Part II): Nucleic acid sensing antagonists and inhibitors” (Bioorg Med Chem Lett, 2021)
